# Target: hACSL5 (Homo sapiens (Human), UniProt Q9ULC5)
# Assay: Human ACSL5 coupled enzyme Amplex Red assay
# Format: biochemical
# Settings: read-out: hACSL5 IC50
# Procedure: Human ACSL5 (33-683) was cloned with a C-terminal 6 His tag and expressed in insect cells (sf9) as per standard insect cell expression protocols. Human ACSL5 was enriched by affinity nickel affinity chromatography followed by Superdex S200 gel filtration column equilibrated in 20 mM HEPES pH 7.8, 500 mM NaCl, 1 mM TCEP, 5% glycerol, 0.1% Triton X^100.
# Inhibition of ACSL5 enzyme activity was monitored with a coupled enzyme Amplex Red assay.
# The assay is carried out in 384-well microtiterplates. In a total volume of […], compounds are preincubated with 20 nM ACSL5, in a buffer containing 150 mM MOPS-NaOH, 12 mM MgCl2, 0.03% (v/v) Triton X-100, 2.79 U mL-1 Peroxidase and 24 U mL-1 Acyl-CoA Oxidase (pH 7.6). The reaction is started by the addition of substrate and co factors (25 μM oleate, 30 μM CoA, 1 mM ATP and 50 μM Amplex Red) and the fluorescence detected after 10 minutes at 25° C. with a fluorescence reader (BMG-Fluostar; BMG-Technologies) using an excitation wavelength of 535 nm and an emission wavelength of 590 nm.
# Concentration-response titration points for each compound tested were filled to the Hill equation yielding concentrations of half maximal inhibition […] and maximal inhibition values.
# Chain of hACSL5 (Q9ULC5 33-683): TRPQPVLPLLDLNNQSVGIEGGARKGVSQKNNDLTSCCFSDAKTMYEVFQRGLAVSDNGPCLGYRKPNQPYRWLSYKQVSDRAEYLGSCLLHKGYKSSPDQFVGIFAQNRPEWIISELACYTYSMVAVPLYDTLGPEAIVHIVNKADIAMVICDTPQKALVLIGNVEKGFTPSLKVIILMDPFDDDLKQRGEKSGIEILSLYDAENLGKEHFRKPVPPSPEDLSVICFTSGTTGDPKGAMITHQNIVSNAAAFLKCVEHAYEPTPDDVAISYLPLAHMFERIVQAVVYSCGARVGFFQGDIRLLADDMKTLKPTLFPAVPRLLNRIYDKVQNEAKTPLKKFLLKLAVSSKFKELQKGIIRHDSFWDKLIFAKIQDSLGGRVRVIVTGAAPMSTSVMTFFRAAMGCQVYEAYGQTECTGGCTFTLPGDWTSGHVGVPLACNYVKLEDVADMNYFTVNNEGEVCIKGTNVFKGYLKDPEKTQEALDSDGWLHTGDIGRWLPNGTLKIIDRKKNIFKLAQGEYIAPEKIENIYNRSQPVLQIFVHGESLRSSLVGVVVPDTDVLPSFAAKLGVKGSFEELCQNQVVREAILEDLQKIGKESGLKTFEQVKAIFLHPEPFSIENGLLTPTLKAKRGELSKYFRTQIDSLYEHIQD
row,SMILES,IC50
1,"CC[C@@H](Oc1ccc(C(=O)NS(=O)(=O)N2CCC(OC3CN(C)C3)CC2)c(F)c1F)c1ccc(OCC2CC2)cn1 [(R)-4-(1-(5-(cyclopropylmethoxy)pyridin-2-yl)propoxy)-2,3-difluoro-N-((4-((1-methylazetidin-3-yl)oxy)piperidin-1-yl)sulfonyl)benzamide]",100 to 500 nM
2,"CC[C@@H](Oc1ccc(C(=O)NS(=O)(=O)N2CC3=C(CN(C)C3)C2)c(F)c1F)c1ccc(OCC2CC2)cn1 [(R)-4-(1-(5-(cyclopropylmethoxy)pyridin-2-yl)propoxy)-2,3-difluoro-N-((5-methyl-3,4,5,6-tetrahydropyrrolo[3,4-c]pyrrol-2(1H)-yl)sulfonyl)benzamide]",100 to 500 nM
3,"CC[C@@H](Oc1ccc(C(=O)NS(=O)(=O)N2CC3(CN(C)C3)C2)c(F)c1F)c1ccc(OCC2CC2)cn1 [(R)-4-(1-(5-(cyclopropylmethoxy)pyridin-2-yl)propoxy)-2,3-difluoro-N-((6-methyl-2,6-diazaspiro[3.3]heptan-2-yl)sulfonyl)benzamide]",100 to 500 nM
4,"CC[C@@H](Oc1ccc(C(=O)NS(=O)(=O)N2CCC(OCCN(C)C)CC2)c(F)c1F)c1ccc(OCCOC)cn1 [(R)-N-((4-(2-(dimethylamino)ethoxy)piperidin-1-yl)sulfonyl)-2,3-difluoro-4-(1-(5-(2-methoxyethoxy)pyridin-2-yl)propoxy)benzamide]",> 500 nM
5,CC(Oc1ccc(C(=O)NS(=O)(=O)CCCN2CCOCC2)cc1C(F)(F)F)c1ccc(Oc2cccnn2)cn1 (stereo not shown) [N-((3-morpholinopropyl)sulfonyl)-4-(1-(5-(pyridazin-3-yloxy)pyridin-2-yl)ethoxy)-3-(trifluoromethyl)benzamide],100 to 500 nM
6,"NCc1ccc(S(=O)(=O)NC(=O)c2ccc(OCc3ccc(Oc4ccccc4)cc3)c(F)c2F)cc1 [N-((4-(aminomethyl)phenyl)sulfonyl)-2,3-difluoro-4-((4-phenoxybenzyl)oxy)benzamide]",> 500 nM
7,CC(Oc1ccc(C(=O)NS(=O)(=O)c2ccc(CN)cc2)cc1C(F)(F)F)c1cccc(Oc2cnn(C)c2)c1 (stereo not shown) [N-((4-(aminomethyl)phenyl)sulfonyl)-4-(1-(3-((1-methyl-1H-pyrazol-4-yl)oxy)phenyl)ethoxy)-3-(trifluoromethyl)benzamide],> 500 nM
8,CCCC(C)COc1cccc(C(C)Oc2ccc(C(=O)NS(=O)(=O)c3ccc(CN)cc3)cc2C(F)(F)F)c1 (stereo not shown) [N-((4-(aminomethyl)phenyl)sulfonyl)-4-(1-(3-((2-methylpentyl)oxy)phenyl)ethoxy)-3-(trifluoromethyl)benzamide],> 500 nM
9,CC(Oc1ccc(C(=O)NS(=O)(=O)c2ccc(CN)cc2)cc1C(F)(F)F)c1cccc(OCC2CCCC2)c1 (stereo not shown) [N-((4-(aminomethyl)phenyl)sulfonyl)-4-(1-(3-(cyclopentylmethoxy)phenyl)ethoxy)-3-(trifluoromethyl)benzamide],> 500 nM
10,"CC(Oc1ccc(C(=O)NS(=O)(=O)c2ccc(CN)cc2)c(F)c1F)c1cccc(OC2CCCC2)c1 (stereo not shown) [N-((4-(aminomethyl)phenyl)sulfonyl)-4-(1-(3-(cyclopentyloxy)phenyl)ethoxy)-2,3-difluorobenzamide]",100 to 500 nM
11,CC(Oc1ccc(C(=O)NS(=O)(=O)c2ccc(CN)cc2)cc1C(F)(F)F)c1cccc(OC2CCCC2)c1 (stereo not shown) [N-((4-(aminomethyl)phenyl)sulfonyl)-4-(1-(3-(cyclopentyloxy)phenyl)ethoxy)-3-(trifluoromethyl)benzamide],> 500 nM
12,CCCCCOc1cccc(C(C)Oc2ccc(C(=O)NS(=O)(=O)c3ccc(CN)cc3)cc2C(F)(F)F)c1 (stereo not shown) [N-((4-(aminomethyl)phenyl)sulfonyl)-4-(1-(3-(pentyloxy)phenyl)ethoxy)-3-(trifluoromethyl)benzamide],100 to 500 nM
13,CC(Oc1ccc(C(=O)NS(=O)(=O)c2ccc(CN)cc2)cc1C(F)(F)F)c1cccc(Oc2cnccn2)c1 (stereo not shown) [N-((4-(aminomethyl)phenyl)sulfonyl)-4-(1-(3-(pyrazin-2-yloxy)phenyl)ethoxy)-3-(trifluoromethyl)benzamide],< 100 nM
14,CC(Oc1ccc(C(=O)NS(=O)(=O)c2ccc(CN)cc2)cc1C(F)(F)F)c1cccc(Oc2cncnc2)c1 (stereo not shown) [N-((4-(aminomethyl)phenyl)sulfonyl)-4-(1-(3-(pyrimidin-5-yloxy)phenyl)ethoxy)-3-(trifluoromethyl)benzamide],100 to 500 nM
15,CC(Oc1ccc(C(=O)NS(=O)(=O)c2ccc(CN)cc2)cc1C(F)(F)F)c1cccc(Oc2ccsc2)c1 (stereo not shown) [N-((4-(aminomethyl)phenyl)sulfonyl)-4-(1-(3-(thiophen-3-yloxy)phenyl)ethoxy)-3-(trifluoromethyl)benzamide],< 100 nM
16,NCc1ccc(S(=O)(=O)NC(=O)c2ccc(OCC3CCCC3)c(C(F)(F)F)c2)cc1 [N-((4-(aminomethyl)phenyl)sulfonyl)-4-(cyclopentylmethoxy)-3-(trifluoromethyl)benzamide],> 500 nM
17,"CC[C@@H](Oc1ccc(C(=O)NS(=O)(=O)N2CCN(CC)CC2)c(F)c1F)c1ccc(OC2CC(OC)C2)cn1 (stereo partly drawn) [N-((4-ethylpiperazin-1-yl)sulfonyl)-2,3-difluoro-4-((R)-1-(5-((1R,3R)-3-methoxycyclobutoxy)pyridin-2-yl)propoxy)benzamide]",100 to 500 nM
18,"CC[C@@H](Oc1ccc(C(=O)NS(=O)(=O)N2CCN(CC)CC2)cc1C(F)(F)F)c1ccc(OC2CC(OC)C2)cn1 (stereo partly drawn) [N-((4-ethylpiperazin-1-yl)sulfonyl)-4-((R)-1-(5-((1R,3R)-3-methoxycyclobutoxy)pyridin-2-yl)propoxy)-3-(trifluoromethyl)benzamide]",100 to 500 nM

# Further lines, results first:
row,IC50,SMILES
1,100 to 500 nM,"CC(Oc1ccc(C(=O)NS(=O)(=O)CCN)c(Cl)c1Cl)c1cccc(Oc2ccccc2)c1 (stereo not shown) [N-((2-aminoethyl)sulfonyl)-2,3-dichloro-4-(1-(3-phenoxyphenyl)ethoxy)benzamide]"
2,100 to 500 nM,"NCCc1ccc(S(=O)(=O)NC(=O)c2ccc(OCc3cccc(Oc4ccccc4)c3)c(F)c2F)cc1 [N-((4-(2-aminoethyl)phenyl)sulfonyl)-2,3-difluoro-4-((3-phenoxybenzyl)oxy)benzamide]"
3,100 to 500 nM,"CN(C)Cc1ccc(S(=O)(=O)NC(=O)c2ccc(OCc3cccc(Oc4ccccc4)c3)c(F)c2F)cc1 [N-((4-((dimethylamino)methyl)phenyl)sulfonyl)-2,3-difluoro-4-((3-phenoxybenzyl)oxy)benzamide]"
4,100 to 500 nM,"CC(COc1ccc(C(=O)NS(=O)(=O)c2ccc(CN)cc2)c(Cl)c1Cl)c1cccc(Oc2ccccc2)c1 (stereo not shown) [N-((4-(aminomethyl)phenyl)sulfonyl)-2,3-dichloro-4-(2-(3-phenoxyphenyl)propoxy)benzamide]"
5,< 100 nM,"NCc1ccc(S(=O)(=O)NC(=O)c2ccc(OCc3cccc(Oc4ccccc4)c3)c(Cl)c2Cl)cc1 [N-((4-(aminomethyl)phenyl)sulfonyl)-2,3-dichloro-4-((3-phenoxybenzyl)oxy)benzamide]"
6,< 100 nM,"CC(Oc1ccc(C(=O)NS(=O)(=O)c2ccc(CN)cc2)c(F)c1F)c1cccc(Oc2cccnc2)c1 (stereo not shown) [N-((4-(aminomethyl)phenyl)sulfonyl)-2,3-difluoro-4-(1-(3-(pyridin-3-yloxy)phenyl)ethoxy)benzamide]"
7,< 100 nM,"CC(Oc1ccc(C(=O)NS(=O)(=O)c2ccc(CN)cc2)c(F)c1F)c1cccc(Oc2ccccc2)c1 (stereo not shown) [N-((4-(aminomethyl)phenyl)sulfonyl)-2,3-difluoro-4-(1-(3-phenoxyphenyl)ethoxy)benzamide]"
8,< 100 nM,CC(Oc1ccc(C(=O)NS(=O)(=O)c2ccc(CN)cc2)cc1C(F)(F)F)c1cccc(Oc2ccccn2)c1 (stereo not shown) [N-((4-(aminomethyl)phenyl)sulfonyl)-4-(1-(3-(pyridin-2-yloxy)phenyl)ethoxy)-3-(trifluoromethyl)benzamide]
9,< 100 nM,CC(Oc1ccc(C(=O)NS(=O)(=O)c2ccc(CN)cc2)cc1C(F)(F)F)c1cccc(Oc2cccnc2)c1 (stereo not shown) [N-((4-(aminomethyl)phenyl)sulfonyl)-4-(1-(3-(pyridin-3-yloxy)phenyl)ethoxy)-3-(trifluoromethyl)benzamide]
10,100 to 500 nM,CC(COc1ccc(C(=O)NS(=O)(=O)c2ccc(CN)cc2)cc1C(F)(F)F)c1cccc(Oc2ccccc2)c1 (stereo not shown) [N-((4-(aminomethyl)phenyl)sulfonyl)-4-(2-(3-phenoxyphenyl)propoxy)-3-(trifluoromethyl)benzamide]

# Source: patent publication US20250275959A1, “COMPOUNDS AND METHODS OF THEIR USE” (LEXICON PHARMACEUTICALS, INC., priority 2024, published 2025)
